Reference: ChEMBL document CHEMBL1201862, “PubChem BioAssay data set” (2004)
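Interpolation was linear, between the two tested concentrations surrounding the appropriate level; five concentrations were tested over 48 hours in 96-well plates. Here, GI50 denotes the concentration required for 50% inhibition of growth.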 Activity calls are given as the source filed them. No stated cut-off is given here; in the data, active = GI50 up to about 1.1 µM and inactive = higher.

Experiments:
Assay in all cases: inhibition of tumour cell growth, NCI panel, 48 h
[1] = system: A549
[2] = system: IGROV-1
[3] = system: SN12C
[4] = system: Malme-3M
[5] = system: 786-0
[6] = system: NCI-H226
[7] = system: HOP-18
[8] = system: OVCAR-8
[9] = system: HCT-15
[10] = system: SK-MEL-28
[11] = system: CCRF-CEM
[12] = system: NCI-H522
[13] = system: HL-60
[14] = system: MOLT-4
[15] = system: K562
[16] = system: LXFL 529
[17] = system: DMS-114
[18] = system: ACHN
[19] = system: TK-10
[20] = system: LOX IMVI
[21] = system: HT-29
[22] = system: SNB-78
[23] = system: SK-MEL-5
[24] = system: UO-31
[25] = system: HOP-62
[26] = system: U-251
[27] = system: UACC-62
[28] = system: SK-OV-3
[29] = system: DMS-273
[30] = system: COLO 205
[31] = system: UACC-257
[32] = system: NCI-H23
[33] = system: SR
[34] = system: A498
[35] = system: SK-MEL-2
[36] = system: DLD-1
[37] = system: HOP-92
[38] = system: EKVX
[39] = system: KM12
[40] = system: SF-295
[41] = system: M14
[42] = system: RXF 631
[43] = system: CAKI-1
[44] = system: OVCAR-5
[45] = system: KM-20L2
[46] = system: M19-MEL
[47] = system: SW-620
[48] = system: HCC 2998
[49] = system: SF-268
[50] = system: RXF 393
[51] = system: NCI-H460
[52] = system: SNB-19
[53] = system: OVCAR-3
[54] = system: SF-539
[55] = system: OVCAR-4
[56] = system: SNB-75
[57] = system: HCT-116
[58] = system: XF498

## C#C[C@H]1CCCCCC1O (stereo partly drawn)
[1]
  GI50: > 100 µM (inactive)
[2]
  GI50: > 100 µM (inactive)
[3]
  GI50: > 100 µM (inactive)
[4]
  GI50: 65.6 µM (inactive)
[5]
  GI50: > 100 µM (inactive)
[6]
  GI50: > 100 µM (inactive)
[7]
  GI50: 54.6 µM (inactive)
[8]
  GI50: > 100 µM (inactive)
[9]
  GI50: > 100 µM
[10]
  GI50: > 100 µM (inactive)
[11]
  GI50: 59 µM (inactive)
[12]
  GI50: > 100 µM (inactive)
[13]
  GI50: 36.1 µM (inactive)
[14]
  GI50: > 100 µM (inactive)
[15]
  GI50: > 100 µM (inactive)
[16]
  GI50: 96.8 µM (inactive)
[17]
  GI50: > 100 µM (inactive)
[18]
  GI50: > 100 µM (inactive)
[19]
  GI50: > 100 µM (inactive)
[20]
  GI50: 29 µM (inactive)
[21]
  GI50: > 100 µM (inactive)
[22]
  GI50: > 100 µM (inactive)
[23]
  GI50: > 100 µM (inactive)
[24]
  GI50: > 100 µM (inactive)
[25]
  GI50: > 100 µM (inactive)
[26]
  GI50: > 100 µM (inactive)
[27]
  GI50: > 100 µM (inactive)
[28]
  GI50: > 100 µM (inactive)
[29]
  GI50: > 100 µM (inactive)
[30]
  GI50: > 100 µM (inactive)
[31]
  GI50: > 100 µM (inactive)
[32]
  GI50: > 100 µM (inactive)
[33]
  GI50: 97.7 µM (inactive)
[34]
  GI50: > 100 µM (inactive)
[35]
  GI50: > 100 µM (inactive)
[36]
  GI50: > 100 µM (inactive)
[37]
  GI50: > 100 µM (inactive)
[38]
  GI50: > 100 µM (inactive)
[39]
  GI50: > 100 µM (inactive)
[40]
  GI50: > 100 µM (inactive)
[41]
  GI50: > 100 µM (inactive)
[42]
  GI50: > 100 µM (inactive)
[43]
  GI50: > 100 µM (inactive)
[44]
  GI50: > 100 µM (inactive)
[45]
  GI50: > 100 µM (inactive)
[46]
  GI50: > 100 µM (inactive)
[47]
  GI50: 23.3 µM (inactive)
[48]
  GI50: > 100 µM (inactive)
[49]
  GI50: > 100 µM (inactive)
[50]
  GI50: > 100 µM (inactive)
[51]
  GI50: > 100 µM (inactive)
[52]
  GI50: > 100 µM (inactive)
[53]
  GI50: > 100 µM (inactive)
[54]
  GI50: > 100 µM (inactive)
[55]
  GI50: > 100 µM (inactive)
[56]
  GI50: > 100 µM (inactive)
[57]
  GI50: > 100 µM (inactive)
[58]
  GI50: > 100 µM (inactive)
